# According to patent US10703751B2, “Amino-imidazopyridine derivatives as Janus kinase inhibitors and pharmaceutical use thereof” (LEO Pharma A/S, priority 2017, dated 2020):
# Assays:
# CYP2D6 = CYP2D6 (Homo sapiens (Human), UniProt P10635); test: Reversible CYP inhibition, 2D6; type: in vitro ADME; conditions: up to 50 μM for Example 3, up to 25 μM for Examples 644 and 641
# Experimental: (§1) Reversible CYP inhibition, time dependent CYP inhibition (TDI) and CYP induction was tested at Cyprotex PLC according to authority guidance.
# STAT6 bla-RA1 cells = test: STAT6 assay (IL-4 stimulated reporter cells); type: cell-based; conditions: for EC50: interleukin 4 10 ng/mL; for STAT5/STAT6 EC50 ratio (selectivity for STAT6 over STAT5): selectivity for STAT6 over STAT5, from EC50
# Experimental: Twenty-five μL of a STAT6 bla-RA1 (Invitrogen # K1243) cell suspension was seeded with a density of 30-40,000 cells/well in 384-well Black View-plates (PerkinElmer #6007460) with clear bottom in assay medium (Opti-MEM (Invitrogen #11058-021)+0.5% heat inactivated fetal bovine Serum (Invitrogen #10082-147)+1% non-essential amino acids (Invitrogen #11140-050)+1% sodium pyruvate (Invitrogen #11360-070)+1% penicillin/streptomycin (Invitrogen #15140-122)); containing 550 ng/mL of CD40 ligand (Invitrogen # PHP0025). The cell plates were incubated overnight in a humidified 37° C. air/CO2 (95%/5%) incubator. The following day, 125 nL of solutions of test compounds and reference compounds were transferred to cell plates using the Labcyte Echo 550 liquid handler. The plates were then incubated for 1 h in a humidified 37° C. air/CO2 (95%/5%) incubator. Hereafter recombinant human interleukin 4 (Invitrogen # PHC0045) were added to the plates also using the Labcyte Echo 550 to a final concentration of 10 ng/mL. The cells were then incubated for 4½-5 h in a humidified 37° C. air/CO2 (95%/5%) incubator. 8 μL of LiveBLAzer substrate mixture (Invitrogen # K1095) were then added to the assay plates, which were incubated overnight at RT. Fluorescence was then measured: Excitation: 405 nm; Emission: 460 nm (green channel), Emission: 535 nm (blue channel). Background was subtracted in both emission channels and the ratio 460/535 nm was calculated for each well.
# STAT5 irfl-bla TF1 cells = test: STAT5 assay (EPO stimulated reporter cells); type: cell-based; conditions: Homo sapiens, TF-1; erythropoietin (EPO) 10 ng/mL
# Experimental: Twenty-five μL of a STAT5 irfl-bla TF1 (Invitrogen # K1219) cell suspension was seeded with a density of about 10,000 cells/well in 384-well Black View-plates (PerkinElmer #6007460) with clear bottom in assay medium (Opti-MEM (Invitrogen #11058-021)+0.5% heat inactivated fetal bovine Serum (Invitrogen #10082-147)+1% non-essential amino acids (Invitrogen #11140-050)+1% sodium pyruvate (Invitrogen #11360-070)+1% penicillin/streptomycin (Invitrogen #15140-122)). The cell plates were incubated overnight in a humidified 37° C. air/CO2 (95%/5%) incubator. The following day, 125 nL of solutions of test compounds and reference compounds were transferred to cell plates using the Labcyte Echo 550 liquid handler. The plates were then incubated for 1 h in a humidified 37° C. air/CO2 (95%/5%) incubator. Hereafter recombinant human erythropoietin (EPO) (Invitrogen # PHC9634) was added to the plates also using the Labcyte Echo 550 to a final concentration of 10 ng/mL. The cells were then incubated for 4½-5 h in a humidified 37° C. air/CO2 (95%/5%) incubator. 8 μL of LiveBLAzer substrate mixture (Invitrogen # K1095) were then added to the assay plates, which were then incubated overnight at RT. Fluorescence was then measured: Excitation: 405 nm; Emission: 460 nm (green channel), Emission: 535 nm (blue channel). Background was subtracted in both emission channels and the ratio 460/535 nm was calculated for each well.
# CYP2C19 = CYP2C19 (Homo sapiens (Human), UniProt P33261); test: Reversible CYP inhibition, 2C19; type: in vitro ADME; conditions: up to 50 μM for Example 3, up to 25 μM for Examples 644 and 641
# Experimental: as §1
# CYP3A4 = CYP3A4 (Homo sapiens (Human), UniProt P08684); test: Reversible CYP inhibition, 3A4; type: in vitro ADME; conditions: for IC50: up to 50 μM for Example 3, up to 25 μM for Examples 644 and 641
# Experimental: as §1
# CYP3A4 gene expression = test: CYP induction, CYP3A4 mRNA expression; type: in vitro ADME
# Experimental: as §1
# Induction of CYP1A2, CYP2B6 and CYP3A4 gene expression can serve as sensitive representative endpoints for activation of aryl hydrocarbon receptor (AhR), […], respectively. Induction of these nuclear receptors was assessed by measuring the increase in mRNA encoding for […], respectively, at relevant concentrations.
# A >2-fold shift indicate CYP Induction.
# Chain of CYP3A4 (P08684 whole entry): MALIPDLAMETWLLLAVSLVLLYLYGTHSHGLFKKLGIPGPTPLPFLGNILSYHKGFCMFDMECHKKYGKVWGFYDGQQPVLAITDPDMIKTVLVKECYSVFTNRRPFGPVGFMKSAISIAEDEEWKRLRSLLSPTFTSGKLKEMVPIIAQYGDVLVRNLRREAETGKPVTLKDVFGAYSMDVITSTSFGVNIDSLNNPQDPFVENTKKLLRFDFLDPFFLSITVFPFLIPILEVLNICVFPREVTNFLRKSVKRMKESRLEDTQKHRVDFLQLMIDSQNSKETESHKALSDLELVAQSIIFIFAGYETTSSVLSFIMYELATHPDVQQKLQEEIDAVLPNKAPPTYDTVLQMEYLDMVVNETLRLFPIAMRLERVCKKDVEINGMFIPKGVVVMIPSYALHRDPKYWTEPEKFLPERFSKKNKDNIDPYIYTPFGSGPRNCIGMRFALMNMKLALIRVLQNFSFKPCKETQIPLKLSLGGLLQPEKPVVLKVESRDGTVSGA
# Chain of CYP2C19 (P33261 whole entry): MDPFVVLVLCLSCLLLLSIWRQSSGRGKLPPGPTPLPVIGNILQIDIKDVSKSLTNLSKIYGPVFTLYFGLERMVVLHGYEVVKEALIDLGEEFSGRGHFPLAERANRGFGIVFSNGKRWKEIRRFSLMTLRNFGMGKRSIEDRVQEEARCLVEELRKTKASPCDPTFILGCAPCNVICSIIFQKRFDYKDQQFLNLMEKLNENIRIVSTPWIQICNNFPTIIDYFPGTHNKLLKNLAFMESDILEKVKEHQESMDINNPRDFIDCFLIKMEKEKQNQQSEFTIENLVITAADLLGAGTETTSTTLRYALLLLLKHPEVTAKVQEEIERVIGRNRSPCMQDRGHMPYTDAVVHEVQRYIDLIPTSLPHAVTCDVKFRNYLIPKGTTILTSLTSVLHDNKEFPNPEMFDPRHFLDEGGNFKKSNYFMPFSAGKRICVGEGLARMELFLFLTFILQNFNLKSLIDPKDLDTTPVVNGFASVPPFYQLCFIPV
# Chain of CYP2D6 (P10635 whole entry): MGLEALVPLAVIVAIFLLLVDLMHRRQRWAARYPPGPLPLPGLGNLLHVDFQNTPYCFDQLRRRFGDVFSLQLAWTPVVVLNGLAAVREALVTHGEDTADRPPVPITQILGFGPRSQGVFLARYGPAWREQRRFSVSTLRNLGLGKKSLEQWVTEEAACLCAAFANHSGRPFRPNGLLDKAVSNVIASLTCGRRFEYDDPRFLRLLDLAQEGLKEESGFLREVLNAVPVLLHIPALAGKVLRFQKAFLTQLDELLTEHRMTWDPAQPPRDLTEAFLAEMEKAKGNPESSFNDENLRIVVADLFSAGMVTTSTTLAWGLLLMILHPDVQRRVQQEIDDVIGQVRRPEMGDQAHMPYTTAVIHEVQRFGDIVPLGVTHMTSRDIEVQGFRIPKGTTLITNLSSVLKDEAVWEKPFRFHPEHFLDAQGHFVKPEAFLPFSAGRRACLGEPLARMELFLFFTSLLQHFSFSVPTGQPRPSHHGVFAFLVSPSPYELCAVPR
SMILES,IC50 (CYP2D6) [µM],EC50 (STAT6 bla-RA1 cells) [µM],STAT5/STAT6 EC50 ratio (selectivity for STAT6 over STAT5) (STAT6 bla-RA1 cells),EC50 (STAT5 irfl-bla TF1 cells) [µM],IC50 (CYP2C19) [µM],IC50 (CYP3A4) [µM],CYP3A4 induction (in words) (CYP3A4 gene expression),CYP3A4 inhibition (in words) (CYP3A4)
"CNc1cc2c(cn1)nc([C@@H](C)O)n2[C@H]1CC[C@H](CC#N)CC1 [Example 3, trans-2-[4-[2-[(1R)-1-Hydroxyethyl]-6-(methylamino)imidazo[4,5-c]pyridin-1-yl]cyclohexyl]acetonitrile]",> 50,0.0945,68,6.42,> 50,> 50,does not cause CYP3A4 induction up to at least a concentration of 50 μM,
C[C@@H](O)c1nc2cnc3[nH]ccc3c2n1[C@H]1CC[C@H](CC#N)CC1 [Example 644 of WO2011086053],> 25,0.0105,,0.123,> 25,10.8,causes CYP3A4 induction at a concentration of 10 μM,weak CYP3A4 inhibition
C[C@@H](O)c1nc2cnc3[nH]ccc3c2n1[C@H]1CC[C@H](C#N)CC1 [Example 641 of WO2011086053],> 25,0.178,32,5.74,> 25,10.9,causes CYP3A4 induction at a concentration of 20 μM and above,weak CYP3A4 inhibition
